Assays:
Assay type in all cases: biochemical
bi-Zn(II)-NDM-1 [1] = biological target: T1, bi-Zn(II)-NDM-1 (Klebsiella pneumoniae, UniProt C7C422); assay: stopped-flow absorption, single turnover; details: 100 mM Hepes pH 7.5, 200 mM NaCl, 300 µM ZnSO4, 6 °C
T1 construct: gene blaNDM-1

mono-Zn(II)-Sfh-I = biological target: T2, mono-Zn(II)-Sfh-I (Serratia fonticola, UniProt Q9RMI1); assay: stopped-flow absorption (pre-steady state); RFQ Zn K-edge XAS of ES complex; details: 50 mM Hepes pH 7, 4 °C
T2 construct: gene sfhI; expressed from pET-26b; anion exchange and size exclusion purification; mono-Zn(II) form

bi-Zn(II)-BcII = biological target: T3, bi-Zn(II)-BcII (Bacillus cereus, UniProt P04190); assay: rapid-freeze-quench X-ray absorption spectroscopy; details: 10 ms reaction
T3 construct: gene blm; expressed as N-terminal GST fusion, GST removed with thrombin; bi-Zn(II) form

bi-Zn(II)-NDM-1 [2] = biological target: T1, bi-Zn(II)-NDM-1; assay: stopped-flow absorption; details: 100 mM Hepes pH 7.5, 200 mM NaCl, 300 µM ZnSO4, 6 °C

T1 sequence (C7C422 27-270 limits assumed): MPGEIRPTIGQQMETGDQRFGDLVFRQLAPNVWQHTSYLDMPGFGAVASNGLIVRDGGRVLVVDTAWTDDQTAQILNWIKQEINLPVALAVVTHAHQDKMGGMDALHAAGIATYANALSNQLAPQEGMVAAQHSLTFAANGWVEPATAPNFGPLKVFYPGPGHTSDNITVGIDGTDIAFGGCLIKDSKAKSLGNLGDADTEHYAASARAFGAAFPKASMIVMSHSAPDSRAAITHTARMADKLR
T2 sequence (Q9RMI1 entry or part of it): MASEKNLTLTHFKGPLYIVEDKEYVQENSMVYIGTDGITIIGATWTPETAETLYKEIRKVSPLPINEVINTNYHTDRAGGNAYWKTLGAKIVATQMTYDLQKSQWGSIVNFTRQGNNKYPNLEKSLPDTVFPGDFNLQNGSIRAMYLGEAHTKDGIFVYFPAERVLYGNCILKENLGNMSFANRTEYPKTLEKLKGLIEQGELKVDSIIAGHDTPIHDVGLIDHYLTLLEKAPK
T3 sequence (P04190 31-257): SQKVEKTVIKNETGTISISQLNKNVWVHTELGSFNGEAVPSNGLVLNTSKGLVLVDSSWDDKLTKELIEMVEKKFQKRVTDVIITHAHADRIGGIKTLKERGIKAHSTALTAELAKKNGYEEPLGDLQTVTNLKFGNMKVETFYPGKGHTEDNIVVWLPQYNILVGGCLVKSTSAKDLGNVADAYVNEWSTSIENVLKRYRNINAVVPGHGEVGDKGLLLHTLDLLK

| Compound | stopped-flow absorption, single turnover (bi-Zn(II)-NDM-1 [1]) | stopped-flow absorption (pre-steady state); RFQ Zn K-edge XAS of ES complex (mono-Zn(II)-Sfh-I) | rapid-freeze-quench X-ray absorption spectroscopy (bi-Zn(II)-BcII) | stopped-flow absorption (bi-Zn(II)-NDM-1 [2]) |
| --- | --- | --- | --- | --- |
| C[C@@H](O)[C@H]1C(=O)N2C(C(=O)O)=C(SCCN=CN)C[C@H]12 [imipenem] | Hydrolysis of imipenem by bi-Zn(II)-NDM-1 under single turnover conditions | imipenem hydrolysis by the mono-Zn(II) B2 lactamase Sfh-I | X-ray absorption spectroscopy to analyse hydrolysis of imipenem by the B1 enzyme bi-Zn(II)-BcII |  |
| C[C@@H](O)[C@H]1C(=O)N2C(C(=O)O)=C(S[C@@H]3CN[C@H](C(=O)N(C)C)C3)[C@H](C)[C@H]12 [meropenem] |  |  |  | We also assayed hydrolysis of another carbapenem, meropenem, by bi-Zn(II)-NDM-1 |
